Results: ChEMBL document CHEMBL4765381, “Neuropeptide FF and Its Receptors: Therapeutic Applications and Ligand Development” (J Med Chem, 2020)
One block for each molecule: values may come before it. Numbered stars: 1 amine (or outer) side, 2 acyl side, 3 side chain; on linkers, the order of the positions; unused ones are H or OH. Square brackets hold non-standard residues; d marks the D form. Peptide text beside a SMILES is read from it. Nva(5-(4-Bn-piperidin-1-yl)) = N[C@@H](CCCN1CCC(Cc2ccccc2)CC1)C(=O)O; X1 = O=C1[C@@H](N[*:1])Cc2ccccc2CN1CCC(=O)[*:2]; Dmt = Cc1cc(O)cc(C)c1C[C@H](N)C(=O)O

Tests used:
[1] = target: T1, Neuropeptide FF receptor 1 (Homo sapiens, UniProt Q9GZQ6); experiment: Agonist activity at NPFFR1 (unknown origin) expressed in mouse NIH3T3 cells by receptor selection and amplification technology assay relative to control; format: cell-based
[2] = target: T2, Neuropeptide FF receptor 2 (Homo sapiens, UniProt Q9Y5X5); experiment: Agonist activity at NPFFR2 (unknown origin) expressed in mouse NIH3T3 cells by receptor selection and amplification technology assay relative to control; format: cell-based; settings: filed as agonist
[3] = target: T1, Neuropeptide FF receptor 1; experiment: Agonist activity at NPFFR1 (unknown origin) expressed in mouse NIH3T3 cells by receptor selection and amplification technology assay; format: cell-based
[4] = target: T1, Neuropeptide FF receptor 1; experiment: Agonist activity at NPFFR1 (unknown origin) expressed in HEK293T cells harboring EP2 incubated for 15 mins by cAMP assay relative to control; format: functional, cell-based; settings: filed as agonist
[5] = target: T1, Neuropeptide FF receptor 1; experiment: Agonist activity at NPFFR1 (unknown origin) expressed in HEK293T cells harboring EP2 incubated for 15 mins by cAMP assay; format: functional, cell-based
[6] = target: T2, Neuropeptide FF receptor 2; experiment: Agonist activity at NPFFR2 (unknown origin) expressed in HEK293T cells harboring EP2 incubated for 15 mins by cAMP assay relative to control; format: functional, cell-based; settings: filed as agonist
[7] = target: T1, Neuropeptide FF receptor 1; experiment: Antagonist activity at human NPFFR1 expressed in CHO-K1 cells assessed as reversal of agonist-induced inhibition of forskolin-stimulated cAMP accumulation incubated for 30 mins by LANCE ultra cAMP assay; format: functional, cell-based
[8] = target: T2, Neuropeptide FF receptor 2; experiment: Antagonist activity at human NPFFR2 expressed in CHO-K1 cells assessed as reversal of agonist-induced inhibition of forskolin-stimulated cAMP accumulation incubated for 30 mins by LANCE ultra cAMP assay; format: functional, cell-based
[9] = system: Mus musculus; experiment: Reversal of morphine-induced analgesia in icv dosed CDF1 mouse assessed as minimum effective dose measured after 15 mins by tail-flick test; format: functional; settings: 0.25 h
[10] = Displacement of [125I]-1DMe from NPFF receptor in Sprague-Dawley rat dorsal horn of spinal cord incubated for 150 mins by autoradiography; format: tissue-based
[11] = target: Neuropeptide FF receptor 2 (Rattus norvegicus) (UniProt Q9EQD2); experiment: Agonist activity at rat NPFFR2 by cell-based assay relative to control; settings: filed as agonist
[12] = target: T1, Neuropeptide FF receptor 1; experiment: Displacement of [125I]NPFF from human NPFFR1 expressed in CHO cell membranes incubated for 120 mins by scintillation/luminescence counting method; design: species or system Membrane
[13] = target: T1, Neuropeptide FF receptor 1; experiment: Antagonist activity at human NPFFR1 expressed in CHO-RD-HGA16 cells assessed as reduction in NPFF-induced calcium influx by measuring apparent dissociation constant Ke preincubated for 15 mins followed by NPFF addition by calcium-5 dye based fluorescence method; format: functional, cell-based; settings: CHO/Galpha16, filed as antagonist
[14] = target: T1, Neuropeptide FF receptor 1; experiment: Antagonist activity at human NPFFR1 expressed in CHO-K1 cells assessed as apparent dissociation constant Ke by Eu-cAMP tracer based TR-FRET assay; format: functional, cell-based; settings: filed as antagonist
[15] = target: T2, Neuropeptide FF receptor 2; experiment: Displacement of [125I]NPFF from human NPFFR2 expressed in CHO cell membranes incubated for 120 mins by scintillation/luminescence counting method; design: species or system Membrane
[16] = target: T2, Neuropeptide FF receptor 2; experiment: Antagonist activity at human NPFFR2 expressed in CHO-RD-HGA16 cells assessed as reduction in NPFF-induced calcium influx by measuring apparent dissociation constant Ke preincubated for 15 mins followed by NPFF addition by calcium-5 dye based fluorescence method; format: functional, cell-based; settings: CHO/Galpha16, filed as antagonist
[17] = target: T2, Neuropeptide FF receptor 2; experiment: Antagonist activity at human NPFFR2 expressed in CHO-K1 cells assessed as apparent dissociation constant Ke by Eu-cAMP tracer based TR-FRET assay; format: functional, cell-based; settings: filed as antagonist
[18] = Displacement of [ […]]Y8Famide from NPFFR in rat spinal cord membranes; format: cell membranes, Membrane
[19] = target: T3, Prolactin-releasing peptide receptor (Homo sapiens, UniProt P49683); experiment: Displacement of [3H]-PrRP-20 from human PrRP receptor expressed in CHO cell membrane by TopCount scintillation counter method; format: cell membranes
T3 sequence (P49683 whole entry): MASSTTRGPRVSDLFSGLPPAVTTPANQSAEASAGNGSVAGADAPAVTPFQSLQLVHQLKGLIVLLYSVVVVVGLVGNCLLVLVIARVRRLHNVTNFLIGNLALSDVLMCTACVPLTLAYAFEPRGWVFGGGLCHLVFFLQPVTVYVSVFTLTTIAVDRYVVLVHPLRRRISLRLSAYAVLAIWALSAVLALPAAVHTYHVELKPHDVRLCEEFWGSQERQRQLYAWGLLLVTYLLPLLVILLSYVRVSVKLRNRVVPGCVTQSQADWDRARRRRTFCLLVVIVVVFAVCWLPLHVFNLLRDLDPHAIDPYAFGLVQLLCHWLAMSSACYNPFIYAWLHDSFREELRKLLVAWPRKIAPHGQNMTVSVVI

[20] = target: KiSS-1 receptor (Homo sapiens, UniProt Q969F8); experiment: Displacement of [125I]-Kp-10 from human KISS1R expressed in CHO cell membrane by TopCount scintillation counter method; format: cell membranes
[21] = target: T4, Pyroglutamylated RF-amide peptide receptor (Homo sapiens, UniProt Q96P65); experiment: Displacement of [125I]-43RFa from human QRFP receptor expressed in CHO cell membrane by TopCount scintillation counter method; format: cell membranes
T4 sequence (Q96P65 whole entry): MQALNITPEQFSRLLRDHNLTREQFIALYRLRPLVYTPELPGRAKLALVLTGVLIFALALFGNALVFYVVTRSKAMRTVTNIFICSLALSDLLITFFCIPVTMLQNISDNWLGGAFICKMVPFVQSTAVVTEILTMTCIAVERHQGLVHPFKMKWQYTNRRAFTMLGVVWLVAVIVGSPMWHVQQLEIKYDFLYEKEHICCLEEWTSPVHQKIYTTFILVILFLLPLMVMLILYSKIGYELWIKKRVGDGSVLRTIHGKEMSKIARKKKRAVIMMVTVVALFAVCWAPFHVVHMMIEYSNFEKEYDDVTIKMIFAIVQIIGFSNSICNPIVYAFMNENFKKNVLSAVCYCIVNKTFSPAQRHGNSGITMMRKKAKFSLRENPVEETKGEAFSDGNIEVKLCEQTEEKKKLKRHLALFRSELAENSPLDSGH

[22] = target: Mu-type opioid receptor (Homo sapiens) (UniProt P35372); experiment: Agonist activity at human mu-opioid receptor expressed in HEK293 cells assessed as inhibition of forskolin-induced cAMP accumulation preincubated for 15 mins followed by forskolin addition in presence of IBMX by Glo-sensor cAMP assay relative to control; format: functional, cell-based; settings: filed as agonist
[23] = target: Delta-type opioid receptor (Homo sapiens) (UniProt P41143); experiment: Agonist activity at human delta-opioid receptor expressed in HEK293 cells assessed as inhibition of forskolin-induced cAMP accumulation preincubated for 15 mins followed by forskolin addition in presence of IBMX by Glo-sensor cAMP assay relative to control; format: functional, cell-based; settings: filed as agonist
[24] = target: Kappa-type opioid receptor (Homo sapiens, UniProt P41145); experiment: Agonist activity at human kappa opioid receptor expressed in HEK293 cells assessed as inhibition of forskolin-induced cAMP accumulation incubated for 15 mins followed by forskolin addition in presence of IBMX by Glo-sensor cAMP assay relative to control; format: functional, cell-based
[25] = target: T1, Neuropeptide FF receptor 1; experiment: Agonist activity at human NPFFR1 expressed in CHO cells by [35S]-GTP S binding assay relative to control; format: cell-based
[26] = target: T2, Neuropeptide FF receptor 2; experiment: Agonist activity at human NPFFR2 expressed in CHO cells by [35S]-GTP S binding assay relative to control; format: cell-based
[27] = target: T2, Neuropeptide FF receptor 2; settings: COS-1, filed as antagonist, dose 7.5 µM, time 30.0 min

T1 sequence (Q9GZQ6 whole entry): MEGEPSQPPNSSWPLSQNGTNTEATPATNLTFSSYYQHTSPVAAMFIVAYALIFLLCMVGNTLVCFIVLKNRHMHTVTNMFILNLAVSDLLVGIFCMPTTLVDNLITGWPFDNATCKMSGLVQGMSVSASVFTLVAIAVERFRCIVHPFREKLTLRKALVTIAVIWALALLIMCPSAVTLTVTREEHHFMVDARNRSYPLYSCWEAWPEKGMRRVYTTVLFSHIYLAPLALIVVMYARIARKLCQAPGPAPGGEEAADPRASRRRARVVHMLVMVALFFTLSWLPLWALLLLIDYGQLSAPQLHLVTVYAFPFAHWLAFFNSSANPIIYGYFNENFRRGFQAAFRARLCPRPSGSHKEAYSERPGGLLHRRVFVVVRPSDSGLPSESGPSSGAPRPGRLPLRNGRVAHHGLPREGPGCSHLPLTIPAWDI
T2 sequence (Q9Y5X5 whole entry): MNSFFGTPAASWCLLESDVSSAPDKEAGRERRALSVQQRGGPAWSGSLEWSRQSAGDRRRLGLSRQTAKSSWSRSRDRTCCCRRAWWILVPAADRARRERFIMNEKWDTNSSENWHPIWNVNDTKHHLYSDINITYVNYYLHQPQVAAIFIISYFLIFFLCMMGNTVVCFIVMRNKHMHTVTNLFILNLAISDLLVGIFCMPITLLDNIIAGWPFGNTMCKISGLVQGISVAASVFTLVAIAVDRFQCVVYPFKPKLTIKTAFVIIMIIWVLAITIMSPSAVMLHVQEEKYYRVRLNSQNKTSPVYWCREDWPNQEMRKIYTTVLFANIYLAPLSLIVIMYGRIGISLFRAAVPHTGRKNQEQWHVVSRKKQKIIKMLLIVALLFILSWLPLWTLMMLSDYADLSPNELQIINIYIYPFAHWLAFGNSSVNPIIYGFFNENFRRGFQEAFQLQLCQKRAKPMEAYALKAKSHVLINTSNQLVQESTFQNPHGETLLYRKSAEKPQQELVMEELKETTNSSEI
Sequence of Mu-type opioid receptor (Homo sapiens) (P35372 whole entry): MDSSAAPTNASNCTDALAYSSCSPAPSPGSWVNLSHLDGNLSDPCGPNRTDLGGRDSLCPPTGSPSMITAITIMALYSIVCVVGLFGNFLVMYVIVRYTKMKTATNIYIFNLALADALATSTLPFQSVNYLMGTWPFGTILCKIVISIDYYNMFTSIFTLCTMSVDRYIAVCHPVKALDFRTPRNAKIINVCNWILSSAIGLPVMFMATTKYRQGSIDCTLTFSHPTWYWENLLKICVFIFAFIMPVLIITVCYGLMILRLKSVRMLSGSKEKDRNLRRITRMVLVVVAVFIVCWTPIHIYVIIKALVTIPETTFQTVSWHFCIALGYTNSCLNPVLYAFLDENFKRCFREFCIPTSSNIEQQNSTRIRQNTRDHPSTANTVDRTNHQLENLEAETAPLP
Sequence of Kappa-type opioid receptor (P41145 whole entry): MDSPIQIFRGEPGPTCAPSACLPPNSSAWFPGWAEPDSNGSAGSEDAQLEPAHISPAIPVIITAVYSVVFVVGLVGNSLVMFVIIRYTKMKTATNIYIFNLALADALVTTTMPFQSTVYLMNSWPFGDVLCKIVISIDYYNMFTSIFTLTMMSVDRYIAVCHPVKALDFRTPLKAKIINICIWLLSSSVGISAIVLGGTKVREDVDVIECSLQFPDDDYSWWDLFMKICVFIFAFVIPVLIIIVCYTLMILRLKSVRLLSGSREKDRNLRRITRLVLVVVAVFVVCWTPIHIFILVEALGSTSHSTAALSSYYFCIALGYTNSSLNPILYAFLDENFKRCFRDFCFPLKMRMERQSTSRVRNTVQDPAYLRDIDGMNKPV
Sequence of Delta-type opioid receptor (Homo sapiens) (P41143 whole entry): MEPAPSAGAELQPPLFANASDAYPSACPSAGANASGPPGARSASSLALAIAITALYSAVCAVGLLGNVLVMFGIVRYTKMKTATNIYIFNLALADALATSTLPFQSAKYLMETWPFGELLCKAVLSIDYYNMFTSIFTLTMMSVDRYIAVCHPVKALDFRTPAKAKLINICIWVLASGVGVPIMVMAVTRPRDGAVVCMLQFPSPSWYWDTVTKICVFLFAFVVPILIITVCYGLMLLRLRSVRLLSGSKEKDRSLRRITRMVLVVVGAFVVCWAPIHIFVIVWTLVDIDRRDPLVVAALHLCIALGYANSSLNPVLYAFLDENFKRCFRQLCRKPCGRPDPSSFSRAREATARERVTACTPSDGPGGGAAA
Sequence of KiSS-1 receptor (Q969F8 whole entry): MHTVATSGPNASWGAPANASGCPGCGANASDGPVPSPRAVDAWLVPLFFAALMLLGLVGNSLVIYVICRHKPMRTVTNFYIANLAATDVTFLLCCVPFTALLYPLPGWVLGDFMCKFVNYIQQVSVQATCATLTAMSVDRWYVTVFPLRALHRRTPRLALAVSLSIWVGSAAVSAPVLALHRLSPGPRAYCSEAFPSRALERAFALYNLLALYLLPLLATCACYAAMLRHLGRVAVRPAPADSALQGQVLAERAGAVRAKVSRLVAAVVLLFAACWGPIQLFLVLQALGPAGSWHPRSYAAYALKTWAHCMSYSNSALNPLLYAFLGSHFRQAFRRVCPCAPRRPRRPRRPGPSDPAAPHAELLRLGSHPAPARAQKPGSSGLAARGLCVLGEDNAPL
Sequence of Neuropeptide FF receptor 2 (Rattus norvegicus) (Q9EQD2 whole entry): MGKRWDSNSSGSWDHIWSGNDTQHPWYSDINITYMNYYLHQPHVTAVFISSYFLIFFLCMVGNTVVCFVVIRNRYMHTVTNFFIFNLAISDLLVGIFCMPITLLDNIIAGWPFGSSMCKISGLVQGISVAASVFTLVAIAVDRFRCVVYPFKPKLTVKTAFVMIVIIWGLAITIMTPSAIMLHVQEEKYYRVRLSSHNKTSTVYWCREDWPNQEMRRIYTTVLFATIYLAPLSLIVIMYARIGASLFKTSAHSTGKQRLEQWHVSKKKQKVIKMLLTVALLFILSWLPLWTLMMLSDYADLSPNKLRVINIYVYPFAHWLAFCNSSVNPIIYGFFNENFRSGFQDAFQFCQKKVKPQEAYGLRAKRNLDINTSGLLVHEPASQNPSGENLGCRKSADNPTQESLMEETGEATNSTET

Efficacy [1]: 30.6%
Efficacy [2]: 108%
EC50 [3]: 3.16 µM
Efficacy [4]: 42%
EC50 [5]: 3.16 µM
Efficacy [6]: 89%
SMILES: N=C(N)N/N=C/c1ccc(Cl)c(C(F)(F)F)c1

IC50 [7]: 0.021 µM
IC50 [8]: 0.387 µM
SMILES: N=C(N)NCCC[C@@H](NC(=O)C(c1ccccc1)c1ccccc1)C(=O)N[C@@H](C(N)=O)c1ccccc1

SMILES: CC(C)C[C@H](NC(=O)[C@@H](N)Cc1ccccc1)C(=O)N[C@@H](Cc1ccccc1)C(=O)N[C@@H](CCC(N)=O)C(=O)N1CCC[C@H]1C(=O)N[C@@H](CCC(N)=O)C(=O)N[C@@H](CCCN=C(N)N)C(=O)N[C@@H](Cc1ccccc1)C(N)=O
MEC [9]: 22 nmol
Ki [10]: 0.00034 µM

Emax [11]: 61%
SMILES: Cc1cc(NC(=N)N)nc2ccc(Cl)cc12

Ki [12]: 0.89 µM
Ke [13]: 0.85 µM
Ke [14]: 0.36 µM
Ki [15]: 1.44 µM
Ke [16]: 3.09 µM
Ke [17]: 2.15 µM
SMILES: CCCCCOC(=O)[C@@H]1C[C@H](NCc2ccc(OC)cc2)CN1Cc1ccccc1Cl

SMILES: CN(C)c1cccc2c(S(=O)(=O)N3CCC[C@H]3C(=O)N[C@@H](CCC(N)=O)C(=O)N[C@@H](CCCNC(=N)N)C(N)=O)cccc12 [DANSYLPQRAMIDE]
Ki [18]: 13 µM

SMILES: NC(N)=N/N=C/c1ccc(Cl)c(Cl)c1
Ki [19]: > 5 µM
Ki [20]: > 5 µM
Ki [21]: > 5 µM

SMILES: Cc1cc(O)cc(C)c1C[C@H](N)C(=O)N[C@H](CCCNC(=N)N)C(=O)N[C@H]1Cc2ccccc2CN(CCC(=O)N[C@@H](CCCN2CCC(Cc3ccccc3)CC2)C(=O)N[C@@H](Cc2ccccc2)C(N)=O)C1=O (H-[Dmt][dR][X1][Nva(5-(4-Bn-piperidin-1-yl))]F-NH2)
Emax [22]: 85%
Emax [23]: 90%
Emax [24]: 34%
Emax [25]: 10%
Emax [26]: 38%

Ki [10]: 0.0155 µM
SMILES: NC(=O)CC[C@H](NC(=O)[C@@H]1CCCN1)C(=O)N[C@@H](CCCN=C(N)N)C(=O)N[C@@H](Cc1ccccc1)C(N)=O

Ke [27]: 45 nM
SMILES: N=C(N)NCCC[C@H](NC(=O)C12CC3CC(CC(C3)C1)C2)C(=O)N[C@@H](Cc1ccccc1)C(N)=O

Ki [12]: 0.61 µM
Ke [13]: 0.25 µM
Ke [14]: 0.49 µM
Ki [15]: 1.67 µM
Ke [16]: 0.69 µM
Ke [17]: 1.17 µM
SMILES: COc1ccc(CN[C@H]2C[C@@H](C(=O)OCCc3ccc([N+](=O)[O-])cc3)N(Cc3ccccc3Cl)C2)cc1
